Results published in patent US9394297B2, “Amides as pim inhibitors” (AMGEN INC., priority 2012, dated 2016).
pIC50: −log10 of the molar value. Where two headings read alike, the source gives them in different places.

Assays:
[1] = tested on: KMS-12-BM myeloma cell line; experiment: Pim KMS-12 cell assay (phospho-BAD S112 / total BAD, MSD); settings: Homo sapiens, KMS-12-BM
Pim-2 [2] = target: T1, Pim-2 (Homo sapiens (Human), UniProt Q9P1W9); experiment: Pim enzyme assay (HTRF, 96-well), Pim-2; type: biochemical; settings: full length recombinant Pim-2, biotinylated-BAD (S112) peptide, 10-point curve, 45 min RT, read-out: Pim-2 IC50 IP
T1 sequence (Q9P1W9 whole entry): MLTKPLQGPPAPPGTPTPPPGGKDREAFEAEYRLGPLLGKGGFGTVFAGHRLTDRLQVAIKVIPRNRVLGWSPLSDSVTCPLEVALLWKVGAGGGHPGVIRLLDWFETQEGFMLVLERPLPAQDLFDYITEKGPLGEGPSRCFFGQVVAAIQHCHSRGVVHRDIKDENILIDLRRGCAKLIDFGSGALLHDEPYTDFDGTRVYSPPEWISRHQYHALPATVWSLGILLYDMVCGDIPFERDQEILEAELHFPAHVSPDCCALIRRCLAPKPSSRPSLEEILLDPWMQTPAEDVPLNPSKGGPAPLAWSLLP
Source text: These cDNAs were used as templates in PCR reactions to produce full-length DNA clones of the PIMs. […] PCR products were digested with BclI and EcoRI for Pim-1 and BamHI and EcoRI for Pim-2 and ligated into a modified baculovirus transfer vector (pFastBac1) cleaved with BamHI and EcoRI. For bacterial expression, the same cleaved PCR products encoding Pim-1 or Pim-2 were ligated into a modified E. coli expression vector pET28(a) cleaved with BamHI and EcoRI. Amino-terminal hexahistidine tags followed by a thrombin cleavage site were previously added to the vectors using standard methods of molecular biology.
Recombinant baculoviruses expressing Pim-1 or Pim-2 were made using standard methods (Fastbac manual, Invitrogen, Carlsbad, Calif.). […] Cells were harvested by centrifugation and frozen at −80 C. For E. coli expression, cells carrying pET28-His6-Th-Pim-1 or pET28-His6-Th-Pim-2 were picked from a single colony and grown o/n in LB media. The o/n culture was used to inoculate a 2 liter flask with 500 mL media. This was grown o/n and used to inoculate 15-20 liters of Terrific Broth in a New Brunswick Scientific fermentor. The E. coli were grown at 37° C. to and OD600 >1.6. The temperature was dropped to 18° C. and o/n expression was induced with 0.5 mM IPTG. Cells were harvested by centrifugation and frozen at −80° C.
The slurry was centrifuged at 1,000×g for 5 min, the supernatant decanted, and the resin suspended in 40 mL of lysis wash buffer (lysis buffer at 0.75 M NaCl). This step was repeated 3× and the resin was transferred to a 2.5 cm glass column. Ten column volumes of wash buffer (0.05 M HEPES, pH 8.0, 0.1 M NaCl, 0.01 M 2-mercaptoethanol, 10%(w/v) glycerol) were applied to the resin followed by 10 column volumes of elution buffer (0.05 M HEPES, pH 8.0, 0.25 M NaCl, 0.01 M 2-mercaptoethanol, 10%(w/v) glycerol, 0.1 M imidazole). Fractions were analyzed by SDS-PAGE and those containing the protein of interest were pooled and concentrated. The concentrated protein was applied to an Amersham Superdex 75 (XK 26/60) column equilibrated in 0.025 M Tris-HCl, pH 7.5, 0.1 M NaCl, 0.01 M 2-mercaptoethanol, 10% (w/v) glycerol. […] Fractions containing the monomeric protein of interest were pooled, concentrated to ˜2 mg/mL, and stored at −80° C.
The phosphorylation of biotinylated-BAD (S112) peptide by full length recombinant Pim-1, Pim-2, or Pim-3 protein was detected with streptavidin:Allophycocyanin (APC) conjugate and a europium (Eu) labeled antibody directed against phosphorylated-BAD (S112). […] The fluorescence is directly proportional to the amount of phosphorylated BAD peptide present in the reaction. […] A reference compound was included on each assay plate in order to validate that plate; on one plate of every assay run, two additional reference compounds were included. The final buffer conditions were as follows: 60 mM Hepes, pH 7.0, 0.05% BSA, 2 mM DTT. Incubations were carried out at RT (22° C.) for 2 h for Pim-1, 1 hour and 30 min for Pim-3, and 45 min for Pim-2. The reaction was stopped by the addition of 3 mM EDTA, and fluorescence was measured by an HTRF® Rubystar microplate reader. For each plate, percent of control (POC) values were calculated for each well. Values for the IC50 IP were estimated using a standard 4-parameter logistic model.

Pim-1 [3] = target: T2, Pim-1 (Homo sapiens (Human), UniProt P11309); experiment: Pim enzyme assay (HTRF, 96-well), Pim-1; type: biochemical; settings: full length recombinant Pim-1, biotinylated-BAD (S112) peptide, 10-point curve, 2 h RT, read-out: Pim-1 IC50 IP
T2 sequence (P11309 whole entry): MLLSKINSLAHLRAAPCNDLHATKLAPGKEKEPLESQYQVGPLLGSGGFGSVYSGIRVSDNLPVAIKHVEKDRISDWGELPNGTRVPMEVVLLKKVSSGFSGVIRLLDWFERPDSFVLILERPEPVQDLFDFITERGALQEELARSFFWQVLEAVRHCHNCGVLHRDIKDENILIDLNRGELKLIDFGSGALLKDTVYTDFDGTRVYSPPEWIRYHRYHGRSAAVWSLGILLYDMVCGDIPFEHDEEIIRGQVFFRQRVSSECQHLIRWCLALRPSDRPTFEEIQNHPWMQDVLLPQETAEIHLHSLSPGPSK
In short: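 HTRF detection of biotinylated BAD (S112) phosphorylation by full-length recombinant His-tagged Pim-1 or Pim-2 in 60 mM Hepes pH 7.0, 0.05% BSA, 2 mM DTT at 22 °C: 2 h for Pim-1, 45 min for Pim-2. Stopped with EDTA; IC50 from 4-parameter logistic fit of percent of control.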

Pim-1 [4] = target: T2, Pim-1; experiment: Pim-Mn enzyme assay (HTRF, 384-well), Pim-1; type: biochemical; settings: Pim-1 enzyme 5 pM, ATP 1.5 μM, BAD (S112) 0.5 μM, HTRF, 22-point curve; read-out: Pim-1-Mn IC50 IP
Pim-2 [5] = target: T1, Pim-2; experiment: Pim-Mn enzyme assay (HTRF, 384-well), Pim-2; type: biochemical; settings: Pim-2 enzyme 0.5 pM, ATP 1.5 μM, BAD (S112) 0.5 μM, HTRF, 22-point curve; read-out: Pim-2-Mn IC50 IP
[6] = read-out: KMS-12-BM IC50 IP, KMS-12-BM cells, phospho-BAD (S112) vs total BAD, 1 hour 50 min with compound

Row | Compound | pIC50 [1, 6] | pIC50 (Pim-2 [2]) | pIC50 (Pim-1 [3]) | pIC50 ([1]; read-out: KMS-12-BM IC50 IP) | pIC50 (Pim-1 [4]) | pIC50 (Pim-2 [5])
1 | Cc1nc2cccc(-c3cc4c([nH]3)CCNC4=O)c2nc1NC1COC1 [Example 196, 2-(2-methyl-3-(oxetan-3-ylamino)quinoxalin-5-yl)-6,7-dihydro-1H-pyrrolo[3,2-c]pyridin-4(5H)-one] | 6.23 | 7.94 | 7.62 | – | – | –
2 | O=C1NCCc2[nH]c(-c3cccc4ccc(O[C@H]5CCCNC5)nc34)cc21 [Example 92, (S)-2-(2-(piperidin-3-yloxy)quinolin-8-yl)-6,7-dihydro-1H-pyrrolo[3,2-c]pyridin-4(5H)-one] | 4.91 | 7.21 | 7.78 | – | – | –
3 | O=C1NCCc2[nH]c(-c3cccc4ccc(Oc5ccc(F)cc5F)nc34)cc21 [Example 10, 2-(2-(2,4-difluorophenoxy)quinolin-8-yl)-6,7-dihydro-1H-pyrrolo[3,2-c]pyridin-4(5H)-one] | 5.13 | 7.68 | 7.92 | – | – | –
4 | Nc1ccc(-c2ccc3cccc(-c4cc5c([nH]4)CCNC5=O)c3n2)c(F)n1 [Example 87, 2-(2-(6-amino-2-fluoropyridin-3-yl)quinolin-8-yl)-6,7-dihydro-1H-pyrrolo[3,2-c]pyridin-4(5H)-one] | 5.75 | 7.83 | 8.42 | – | – | –
5 | CCN(c1cccnc1)c1ccc2cccc(-c3cc4c([nH]3)CCNC4=O)c2n1 [Example 32, 2-(2-(ethyl(pyridin-3-yl)amino)quinolin-8-yl)-6,7-dihydro-1H-pyrrolo[3,2-c]pyridin-4(5H)-one] | 5.86 | 9.22 | 9.52 | – | – | –
6 | Cc1nc2cccc(-c3cc4c([nH]3)CCNC4=O)c2nc1NC1CCOCC1 [Example 127, 2-(2-methyl-3-((tetrahydro-2H-pyran-4-yl)amino)quinoxalin-5-yl)-6,7-dihydro-1H-pyrrolo[3,2-c]pyridin-4(5H)-one] | 6.37 | 7.90 | 7.77 | – | – | –
7 | O=C1NCCc2[nH]c(-c3cccc4ccc(Oc5ccccc5Cl)nc34)cc21 [Example 103, 2-(2-(2-chlorophenoxy)quinolin-8-yl)-6,7-dihydro-1H-pyrrolo[3,2-c]pyridin-4(5H)-one] | – | 7.74 | 8.09 | 5.11 | – | –
8 | O=C1NCCc2[nH]c(-c3cccc4ccc(Oc5c(F)cccc5F)nc34)cc21 [Example 176, 2-(2-(2,6-difluorophenoxy)quinolin-8-yl)-6,7-dihydro-1H-pyrrolo[3,2-c]pyridin-4(5H)-one] | 5.45 | 8.33 | 8.59 | – | – | –
9 | O=C1NCCn2cc(-c3cccc4ccc(Nc5ccccc5)nc34)cc21 [Example 165, 7-(2-(phenylamino)quinolin-8-yl)-3,4-dihydropyrrolo[1,2-a]pyrazin-1(2H)-one] | 5.41 | 7.75 | 8.17 | – | – | –
10 | Cc1nc2cccc(-c3cc4c([nH]3)CCNC4=O)c2nc1NC1CCCC1 [Example 130, 2-(3-(cyclopentylamino)-2-methylquinoxalin-5-yl)-6,7-dihydro-1H-pyrrolo[3,2-c]pyridin-4(5H)-one] | 6.43 | 8.26 | 8.24 | – | – | –
11 | Cc1nc2cccc(-c3cc4c([nH]3)CCNC4=O)c2nc1NC(C)(C)C [Example 193, 2-(3-(tert-butylamino)-2-methylquinoxalin-5-yl)-6,7-dihydro-1H-pyrrolo[3,2-c]pyridin-4(5H)-one] | 7.12 | 8.89 | 8.96 | – | – | –
12 | O=C1NCCc2[nH]c(-c3cccc4ccc(Nc5cccnc5)nc34)cc21 [Example 38, 2-(2-(3-pyridinylamino)-8-quinolinyl)-1,5,6,7-tetrahydro-4H-pyrrolo[3,2-c]pyridin-4-one] | 5.89 | 9.15 | 9.52 | – | – | –
13 | O=C1NCCc2[nH]c(-c3c(F)ccc4ccc(Nc5ccccc5)nc34)cc21 [Example 227, 2-(7-fluoro-2-(phenylamino)quinolin-8-yl)-6,7-dihydro-1H-pyrrolo[3,2-c]pyridin-4(5H)-one] | 6.27 | 8.41 | 9.05 | – | – | –
14 | O=C1NCCc2[nH]c(-c3cccc4ccc(NC5CCCC5)nc34)cc21 [Example 78, 2-(2-(cyclopentylamino)quinolin-8-yl)-6,7-dihydro-1H-pyrrolo[3,2-c]pyridin-4(5H)-one] | 5.26 | 7.72 | 8.44 | – | – | –
15 | O=C1NCCc2[nH]c(-c3cccc4ccc(Cc5ccccc5)nc34)cc21 [Example 3, 2-(2-benzylquinolin-8-yl)-6,7-dihydro-1H-pyrrolo[3,2-c]pyridin-4(5H)-one] | – | 7.43 | 7.89 | 5.21 | – | –
16 | Cc1nc2cccc(-c3cc4c([nH]3)CCNC4=O)c2nc1NC1CCCNC1=O (racemic) [Example 200, rac-2-(2-methyl-3-((2-oxopiperidin-3-yl)amino)quinoxalin-5-yl)-6,7-dihydro-1H-pyrrolo[3,2-c]pyridin-4(5H)-one] | – | 7.07 | 6.96 | – | 7.27 | 7.38
17 | O=C1NCCc2[nH]c(-c3cccc4ccc(Nc5ccccc5Cl)nc34)cc21 [Example 108, 2-(2-((2-chlorophenyl)amino)quinolin-8-yl)-6,7-dihydro-1H-pyrrolo[3,2-c]pyridin-4(5H)-one] | 5.17 | 7.87 | 8.82 | – | – | –
18 | O=C1NCCc2[nH]c(-c3cccc4ccc(Nc5ccccc5F)nc34)cc21 [Example 6, 2-(2-((2-fluorophenyl)amino)quinolin-8-yl)-6,7-dihydro-1H-pyrrolo[3,2-c]pyridin-4(5H)-one] | 5.93 | 8.34 | 8.92 | – | – | –
19 | CCN(c1ccccc1)c1cnc2cccc(-c3cc4c([nH]3)CCNC4=O)c2n1 [Example 186, 2-(3-(ethyl(phenyl)amino)quinoxalin-5-yl)-6,7-dihydro-1H-pyrrolo[3,2-c]pyridin-4(5H)-one] | 5.83 | 8.37 | 8.66 | – | – | –
20 | C=C(C)CNc1nc2c(-c3cc4c([nH]3)CCNC4=O)cccc2nc1C [Example 135, 2-(2-methyl-3-((2-methylallyl)amino)quinoxalin-5-yl)-6,7-dihydro-1H-pyrrolo[3,2-c]pyridin-4(5H)-one] | 6.66 | 8.33 | 8.12 | – | – | –
21 | Cc1nc2cccc(-c3cc4c([nH]3)CCNC4=O)c2nc1N1CCC1 [Example 139, 2-(3-(azetidin-1-yl)-2-methylquinoxalin-5-yl)-6,7-dihydro-1H-pyrrolo[3,2-c]pyridin-4(5H)-one] | – | 7.80 | 7.75 | – | 7.62 | 7.71
